# Test results taken from patent US20200009135A1, “THERAPEUTIC APPLICATIONS OF MALT1 INHIBITORS” (MEDIVIR AB, priority 2017, published 2020).
# Assays:
# MALT1 = target: T1, MALT1 (Homo sapiens, UniProt Q9UDY8); test: HOIL1 cleavage assay (in-cell MALT1 protease activity, Jurkat E6-1); assay type: cell-based; settings: Jurkat E6-1, PMA/Ionomycin-induced cleavage of HOIL1, 60 minutes
# T1 construct: endogenous in cells; host or cells: Jurkat clone E6-1 (ATCC)
# T1 sequence (Q9UDY8 1-824): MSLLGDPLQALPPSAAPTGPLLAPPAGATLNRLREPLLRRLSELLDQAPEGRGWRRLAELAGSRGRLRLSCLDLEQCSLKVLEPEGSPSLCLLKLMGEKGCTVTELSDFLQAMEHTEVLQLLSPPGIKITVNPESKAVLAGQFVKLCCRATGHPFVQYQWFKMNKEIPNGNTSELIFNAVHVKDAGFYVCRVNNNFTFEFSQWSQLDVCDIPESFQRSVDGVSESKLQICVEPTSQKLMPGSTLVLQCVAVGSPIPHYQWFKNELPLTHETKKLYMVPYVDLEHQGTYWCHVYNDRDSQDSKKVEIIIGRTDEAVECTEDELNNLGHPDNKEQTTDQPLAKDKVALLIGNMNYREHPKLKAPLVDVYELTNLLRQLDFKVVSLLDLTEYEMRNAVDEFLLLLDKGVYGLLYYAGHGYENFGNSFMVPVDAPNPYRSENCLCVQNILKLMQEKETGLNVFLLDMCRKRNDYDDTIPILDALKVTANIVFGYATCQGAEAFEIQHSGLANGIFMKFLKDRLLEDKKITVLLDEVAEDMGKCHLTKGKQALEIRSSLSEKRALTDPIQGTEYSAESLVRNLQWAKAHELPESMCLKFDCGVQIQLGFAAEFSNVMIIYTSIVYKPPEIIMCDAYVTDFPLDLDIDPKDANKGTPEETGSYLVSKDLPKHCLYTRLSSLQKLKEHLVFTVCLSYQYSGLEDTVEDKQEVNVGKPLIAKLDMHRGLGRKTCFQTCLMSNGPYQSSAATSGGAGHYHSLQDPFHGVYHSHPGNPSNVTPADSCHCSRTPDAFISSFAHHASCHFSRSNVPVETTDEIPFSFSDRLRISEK
# Experimental: In-cell MALT1 protease activity, was measured as inhibition of PMA/lonomycin-induced cleavage of HOIL1. Day 1 0.75×10^6 cells/well were seeded in a 48 well plate. Day 2 cells were stimulated by PMA/lonomycin (1:500 dilution) with addition of vehicle or compound in a 5-point concentration series, 1:3 dilution.
# Full-length MALT1 enzyme = target: T2, Full-length MALT1 enzyme (Homo sapiens, UniProt Q9UDY8); test: MALT1 biochemical assay; settings: 2 nM enzyme, 50 μM Ac-Leu-Arg-Ser-Arg-AMC substrate
# T2 construct: Full-length MALT1 enzyme at 2 nM was assayed in 50 mM HEPES
# T2 sequence (Q9UDY8 1-824): T1 sequence (Q9UDY8 1-824)
# Experimental: Full-length MALT1 enzyme at 2 nM was assayed in 50 mM HEPES, 100 mM NaCl, 0.9 M NaCitrate, 1 mM EDTA, pH 7.5, with 50 μM Ac-Leu-Arg-Ser-Arg-AMC as substrate. Compound was added in an 11-point concentration series from 100 μM to 1 nM in half-log dilution.
# Compounds were distributed in 384 well plates by Echo550, and the assay was run with fluorescence readings at 460 nm, every 2 minutes for 60 minutes.
# [1] = test system: IL-2 expression in Jurkat (E6-1) cells; test: IL-2 expression assay (down-stream MALT1 activity, Jurkat E6-1); assay type: cell-based; settings: Homo sapiens; Jurkat E6-1, PMA/Ionomycin stimulation, 24 hours
# Experimental: Down-stream MALT1 activity was measured by PMA/lonomycin-induced expression of IL-2 in Jurkat (E6-1) cells. Compounds were distributed in a 96 well plate, 8-point concentration series, 1:3 dilution. Jurkat clone E6-1, 4×10^4 cells/well, were added, and stimulated by PMA/lonomycin (1:500 dilution) for 24 hours at 37° C. Measurement was performed using a MesoScale Sector S600 with the Human IL-2 Tissue Culture kit according to the manufacturers recommendation.
IC50 (MALT1),IC50 (Full-length MALT1 enzyme),SMILES,IC50 [1]
0.04 µM,37.5 nM,"CO[C@@H](C)c1c(NC(=O)Nc2cnc(-n3cc(CN)cn3)c(Cl)c2)cnc2cc(Cl)nn12 [Example 1, (S)-1-(6-(4-(aminomethyl)-1H-pyrazol-1-yl)-5-chloropyridin-3-yl)-3-(2-chloro-7-(1-methoxyethyl)pyrazolo[1,5-a]pyrimidin-6-yl)urea]",0.03 µM
,,"CO[C@@H](C)c1c(NC(=O)Nc2ccnc(C(F)(F)F)c2)cnc2cc(Cl)nn12 [Example 3, (S)-1-(2-Chloro-7-(1-methoxyethyl)pyrazolo[1,5-a]pyrimidin-6-yl)-3-(2-(trifluoromethyl)pyridin-4-yl)urea]",0.02 µM
